Measurements taken from ChEMBL document CHEMBL1135933, “Synthesis of nitroindole derivatives with high affinity and selectivity for melatoninergic binding sites MT(3)” (J Med Chem, 2002).

Key:
[1] = molecular target: T1, Melatonin receptor type 1B (Homo sapiens, UniProt P49286); test: Inhibition of 2-[125I]iodomelatonin binding to human Melatonin receptor type 1B expressed in HEK293 cells; format: cell-based
T1 sequence (P49286 whole entry): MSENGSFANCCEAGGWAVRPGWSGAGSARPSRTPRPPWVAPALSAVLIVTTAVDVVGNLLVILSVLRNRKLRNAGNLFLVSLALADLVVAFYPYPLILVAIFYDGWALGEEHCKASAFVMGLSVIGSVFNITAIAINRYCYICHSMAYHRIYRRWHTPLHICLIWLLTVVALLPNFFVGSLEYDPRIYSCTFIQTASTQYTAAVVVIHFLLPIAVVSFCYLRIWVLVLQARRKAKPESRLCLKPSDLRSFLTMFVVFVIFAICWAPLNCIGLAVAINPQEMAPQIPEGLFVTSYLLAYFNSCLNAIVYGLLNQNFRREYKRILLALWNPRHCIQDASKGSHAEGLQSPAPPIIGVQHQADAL

[2] = molecular target: Melatonin receptor type 1A (Homo sapiens, UniProt P48039); test: Inhibition of 2-[125I]iodomelatonin binding to human Melatonin receptor type 1A expressed in HEK293 cells; format: cell-based
[3] = species: Homo sapiens; test: Selectivity ratio of binding affinity at MT1 receptor relative to MT3 receptor
[4] = species: Homo sapiens; test: Selectivity ratio of binding affinity at MT2 receptor relative to MT3 receptor

Chain of Melatonin receptor type 1A (P48039 whole entry): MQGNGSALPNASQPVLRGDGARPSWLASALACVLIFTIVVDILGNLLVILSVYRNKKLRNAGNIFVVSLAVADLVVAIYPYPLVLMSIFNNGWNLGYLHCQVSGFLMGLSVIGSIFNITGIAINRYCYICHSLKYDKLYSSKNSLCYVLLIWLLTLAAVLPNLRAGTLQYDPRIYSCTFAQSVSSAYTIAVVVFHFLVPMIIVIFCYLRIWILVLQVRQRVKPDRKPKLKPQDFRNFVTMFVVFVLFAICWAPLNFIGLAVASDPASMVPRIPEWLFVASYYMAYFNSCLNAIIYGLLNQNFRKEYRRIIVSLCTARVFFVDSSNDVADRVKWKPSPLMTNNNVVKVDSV

Structure (SMILES)	Ki [1] [nM]	Ki [2] [nM]	Selectivity [3]	Selectivity [4]
COc1ccc2[nH]cc(CCNC(C)=O)c2c1[N+](=O)[O-]	820	1060	964	745
COc1ccc2[nH]c(I)c(CCNC(C)=O)c2c1[N+](=O)[O-]	23.7	19.2	–	–
COc1cc2c(CCNC(C)=O)c[nH]c2cc1[N+](=O)[O-]	5.3	14.6	–	–
COc1ccc2c(c(CCNC(C)=O)cn2C)c1[N+](=O)[O-]	194	8560	27600	625
COc1ccc2c(c1)c(CCNC(C)=O)cn2C	3.1	2.6	0.929	1.1

More lines, now with the values ahead:

Ki [1] [nM]	Ki [2] [nM]	Selectivity [3]	Selectivity [4]	Structure (SMILES)
0.77	1.1	–	–	COc1cc2c(CCNC(C)=O)c(I)n(C)c2cc1[N+](=O)[O-]
–	0.3	–	–	COc1cc2c(CCNC(C)=O)c(I)[nH]c2cc1[N+](=O)[O-]
0.047	0.08	–	–	COc1ccc2c(c1)c(CCNC(C)=O)c(I)n2C
39	1880	–	–	COc1ccc2c(c(CCNC(C)=O)c(I)n2C)c1[N+](=O)[O-]
29	49	–	–	COc1cc([N+](=O)[O-])c2[nH]cc(CCNC(C)=O)c2c1
